These results are taken from US6063784A, “Heteroaryloxyethylamines, method of preparation, application as medicine and pharmaceutical compositions containing them” (Societe de Conseils de Recherches et D'Applications …, priority 1996, dated 2000).

Broadly, the Ki is a measure of affinity in units of concentration, obtained from inhibition or displacement. Low readings indicate higher affinity, high ones lower affinity.

The test deals with T1, serotonergic 5-HT1A receptors (Rattus norvegicus, UniProt P19327).
T1 construct: from tissue; host or cells: cerebral cortex membranes of male Sprague Dawley rats
T1 sequence (P19327 1-422): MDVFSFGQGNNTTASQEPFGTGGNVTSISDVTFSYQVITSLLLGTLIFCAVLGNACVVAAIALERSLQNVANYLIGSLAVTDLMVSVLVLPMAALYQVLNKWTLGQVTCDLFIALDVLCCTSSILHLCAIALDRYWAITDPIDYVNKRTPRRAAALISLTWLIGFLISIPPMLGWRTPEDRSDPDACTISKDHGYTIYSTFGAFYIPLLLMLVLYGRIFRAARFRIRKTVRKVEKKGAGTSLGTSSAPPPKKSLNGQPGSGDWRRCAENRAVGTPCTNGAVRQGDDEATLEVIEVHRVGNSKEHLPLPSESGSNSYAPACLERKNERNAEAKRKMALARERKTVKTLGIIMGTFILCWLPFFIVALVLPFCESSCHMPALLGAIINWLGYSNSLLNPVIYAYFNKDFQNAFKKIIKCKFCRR
Put plainly: Affinity for the 5-HT1A receptor: inhibition of [3H]8-OH-DPAT binding to rat cerebral cortex membranes. The settings on record: [3H]8-OH-DPAT 1 nM, 30 min at 25° C., Tris-HCl 50 mM, pH=7.4. Further details: species or system rat (male Sprague Dawley). The method, then:
The affinity of the compounds for serotonergic 5-HT1A receptors is determined by measuring the inhibition of [3H]8-hydroxy-2(di-n-propylamino)tetralin([3H]8-OH-DPAT) bound to the cerebral cortex of the rat, according to the method of Peroutka and his coworkers [(J. Neurochem., 47, 529 (1986)].
Cerebral cortices of male Sprague Dawley rats are homogenised in Tris-HCl 50 mM, pH=7.4 and centrifuged at 40,000 g for 10 min at 4° C. Pellets are resuspended in the same buffer and incubated for 10 min at 37° C., and the homogenised products are centrifuged again at 40,000 g for 10 min at 4° C.
Competitive inhibition tests of [3H]8-OH-DPAT binding are carried out three times with unlabelled competitors, with concentrations between 100 pM and 100 µM. Cerebral cortex membranes of rats (10 mg wet weight/ml) are incubated with [3H]8-OH-DPAT (1 nM) for 30 min at 25° C. in Tris-HCl 50 mM, pH=7.4 containing 4 mM of CaCl2, 10 µM of pargyline and 0.1% of ascorbic acid.
The bound [3H]8-OH-DPAT is separated from free [3H]8-OH-DPAT by immediate filtration by means of Whatman GF/B glass fibre filters using a Brandel cell recovery device. The filters are washed three times with the same buffer at 0-4° C. and their radioactivity is studied by means of a liquid scintillation spectrometer.
The specific binding is obtained by subtracting the binding determined in the presence of 1 M of 8-OH-DPAT from the total binding. The characteristics of the binding are analysed by iterative analysis of the non-linear regression by computer, using the Ligand program [Munson and Rodbard, Anal. Biochem., 107, 220 (1980)].

`O=C(NCCCCNCCOc1cccc2cccnc12)C1CCCCC1` [Compound 3, N-[4-({2-(8-quinolyloxy)ethyl}amino)butyl]cyclohexanamide] yielded an inhibition constant Ki of 0.15 nM. The value for `CC(C)(C)CNC(=O)CCCCNCCOc1cccc2cccnc12` [Compound 12, N-neopentyl-5-[(2-{8-quinolyloxy}ethyl)amino]pentanamide] was 0.09 nM; that for `CC1(C(=O)NCCCCNCCOc2cccc3cccnc23)CCCCC1` [Compound 4] was 0.11 nM. With `CC(C)(C)C(=O)NCCCCNCCOc1cccc2cccnc12` [Compound 1, N-[4-({2-(8-quinolyloxy)ethyl}amino)butyl]tert-butanamide], the Ki was found to be 0.081 nM. The value for `O=C(CCCCNCCOc1cccc2cccnc12)NC1CCCCC1` [Compound 11, N-cyclohexyl-5-[(2-{8-quinolyloxy}ethyl)amino]pentanamide] was 0.072 nM; that for `O=C(NCCCCNCCOc1cccc2cccnc12)c1ccccc1` [Compound 5, N-[4-({2-(8-quinolyloxy)ethyl}amino)butyl]benzamide] was 0.055 nM. The value for `O=C(NCCCCNCCOc1cccc2nccnc12)c1ccccc1` [Compound 9, N-[4-({2-(5-quinoxalyloxy)ethyl}amino)butyl]benzamide] was 0.75 nM; that for `CC(C)(C)CC(=O)NCCCCNCCOc1cccc2cccnc12` [Compound 2] was 0.12 nM.

In turn, `CC(C)(C)CC(=O)NCCCCNCCOc1ccc(Cl)c2cccnc12` [Compound 6] came in with a Ki of 0.98 nM. The value for `CC(C)(C)CNC(=O)CCCCNCCOc1cccc2nccnc12` [Compound 13, N-neopentyl-5-[(2-{5-quinoxalyloxy}ethyl)amino]pentanamide] was 0.48 nM; that for `Cc1ccc2cccc(OCCNCCCCNC(=O)CC(C)(C)C)c2n1` [Compound 7] was 0.35 nM.
